Each structure is given as a SMILES string. “And” between values parts separate entries of the source, which are not always exact repeats. Equal values may be shown once. Read-outs that look alike come from different tables or passages of the source. Bounds are passed on as bounds.

One experiment deals with ANR-Y1. The experiment in a line: Fluorescence titration of ANR-Y1 suspension with analyte, 1:1 single-site binding fit.
For another experiment, the target named is ANR-L1. In words: Fluorescence titration of ANR-L1 suspension with analyte, 1:1 single-site binding fit. Particulars: for factor weaker binding in the presence of 50 mM Trp than in the absence: ANR-L1, 50 mM Trp as potential competitor.
In another experiment the target is ANR-L3. The experiment in a line: Fluorescence titration of ANR-L3 suspension with analyte, 1:1 single-site binding fit.
In the next experiment the test system is ANR-L4. The experiment in a line: Fluorescence titration of ANR-L4 suspension with analyte, 1:1 single-site binding fit.
A further experiment has as its target ANR-L2. In words: Fluorescence titration of ANR-L2 suspension with analyte, 1:1 single-site binding fit.
For a further experiment, the target named is ANR-Y2. The experiment in a line: Fluorescence titration of ANR-Y2 suspension with analyte, 1:1 single-site binding fit.
The next experiment has as its target CB8-D1. Particulars: CB8-D1 (cucurbit[8]uril and dye D1), in water, read-out: Kd (affinity), cited from earlier work.
A further experiment concerns ANRs. Particulars: 100 µM concentration; ANR-Y2, ANR-L3 and ANR-L5.
For experiment [1] the following is noted: cucurbit[7]uril, ref. [9]; read-out: Kd(5-HT); cited from earlier work.
Another experiment concerns ANR1. The experiment in a line: Binding of tryptophan to ANR1 at acidic pH (data not shown). Particulars: pH <3.
The mark [2] stands for this setting: 10 mM HEPES buffer (pH 7.3), ANR 250 µg/mL, >> = less than 10% change in emission intensity at >50 molar excess of analyte, error less than ±20%, read-out: Kd(ANR-Y1).
[3] abbreviates: 10 mM HEPES buffer (pH 7.3), ANR 250 µg/mL, >> = less than 10% change in emission intensity at >50 molar excess of analyte, error less than ±20%, read-out: Kd(ANR-L1).
Where [4] appears, read: ANR-L3 250 µg/mL in 10 mM HEPES buffer, pH 7.3 (aqueous buffer).
[5] abbreviates: ANR-L1 250 µg/mL, 10 mM HEPES buffer (pH 7.3) with 50 mM tryptophan added, read-out: Kd.
Where [6] appears, read: stated for the larger-cavity zeolite-Y-based receptors, printed 'with ANR-L2'.
Setting [7] is: read-out: single site dissociation constant Kd, ANR-Y2 250 µg/mL, 10 mM HEPES buffer (pH 7.3).
Where [8] appears, read: ANR-Y1 250 µg/mL, 10 mM HEPES buffer (pH 7.3), read-out: single site dissociation constant Kd.

Description for ANR-L2: (§1) This fitting procedure was used in favour of a Stern-Volmer analysis, because linearized binding plots are known to produce errors in Kd.
(§2) Herein, FA is the intensity at a given analyte concentration and F0 is the emission intensity before analyte addition. ΔF is a measure of the relative emission increase or decrease caused by the analyte. For fully non emissive AB complexes, i.e. when the analyte A is an efficient quencher, ΔF reaches -1. The quantity cA denotes the concentration of the analyte A and cB denotes the concentration of the "binding stations" in the ANR.
(§3) The values Kd and ΔF result from the non-least square fit given the input FA, F0, cA and cB.
(§4) The concentration cA of the analyte follows directly from the concentration of the stock solution and the added volume to the cuvette with the suspension of the ANR. The concentration cB of the single binding sites per ANR suspension is a priori not known. […] This so obtained value cB was then used as a constant for the fitting of the binding isotherms of the weaker binding analytes. […] In addition, it is reassuring to note that the value of the affinity constant Kd is rather insensitive to the concentration cB.
Description for ANR-L3: as §1, §2, §3, §4
Description for ANR-L4: as §1, §2, §3, §4
Description for ANR-Y2: as §1, §2, §3, §4

As to `CCC(=O)Nc1ccc(Cl)c(Cl)c1` [propanil], the Kd on ANR-Y1 (setting [2]) and on ANR-L1 (setting [3]) was above 1000 µM each time.

On to `Oc1ccccc1O` [catechol], for which the Kd at ANR-Y1 (setting [2]) and on ANR-L1 (setting [3]) was above 1000 µM in each case.

For the molecule `NCCc1c[nH]c2ccccc12` [tryptamine], the Kd at ANR-L3 (setting [4]) was around 9 µM; on ANR-L3 (ANR-L3, neat chloroform (absence of acetic acid)), 15 µM; at ANR-L3 (read-out: single site dissociation constant Kd, ANR-L3 250 µg/mL, chloroform:acetic acid (99:1)), 4 µM; at ANR-Y1 (setting [2]) it was 0.15 µM; at ANR-L1 (setting [3]), 10 µM; on ANR-L1 (setting [5]), 27 µM. Further, the Kd at ANR-L1 (read-out: single site dissociation constant Kd) came to 3 µM. Also, the “factor weaker binding in the presence of 50 mM Trp than in the absence” value (from here on “factor weaker binding in the presence”) with ANR-L1 is listed as ~ 3.

`O=C(O)Cc1c[nH]c2ccccc12` [indole-3-acetic acid]: the Kd on ANR-Y1 (setting [2]) and on ANR-L1 (setting [3]) was above 1000 µM in each case.

Regarding `N[C@@H](Cc1ccccc1)C(=O)O` [phenylalanine], the Kd on ANR-Y1 (setting [2]) and at ANR-L1 (setting [3]) was above 1000 µM throughout.

As to `NCC(=O)O` [glycine (Gly), glycine], the Kd on ANR-Y1 (setting [2]) and at ANR-L1 (setting [3]) was above 1000 µM each time.

On to `NCCc1ccccc1` [phenethylamine], for which the Kd at ANR-L3 (setting [4]) stood at 190 µM; on ANR-L4 (ANR-L4, partial emission quenching), 19 µM. This molecule also returned a residual emission int. with ANR-L4 (ANR-L4, at 25 µM of analyte) of 75%.

With `NCCO` [ethanolamine], the Kd at ANR-Y1 (setting [2]) and on ANR-L1 (setting [3]) was above 1000 µM in each case.

For `CC(=O)Nc1ccc(O)cc1` [paracetamol], the Kd at ANR-Y1 (setting [2]) and on ANR-L1 (setting [3]) was above 1000 µM throughout.

On to `N[C@H](CO)C(=O)O` [D-serine], for which the Kd on ANR-Y1 (setting [2]) and on ANR-L1 (setting [3]) was above 1000 µM in each case.

As to `CNC[C@H](O)c1ccc(O)c(O)c1` [epinephrine], the Kd was 26 µM on ANR-Y1 (pH 7.3, read-out: Kd(ANR-Y1)); 240 µM at ANR-L2 (ANR-L2, zeolite-L based); 39 µM at ANR-L2 (setting [6]); above 600 µM on ANR-L1 (pH 7.3, read-out: Kd(ANR-L1)).

Regarding `NCC(O)c1ccc(O)cc1` (stereo not drawn) [octopamine], the Kd at ANR-Y1 (setting [2]) amounted to 11 µM; on ANR-L1 (setting [3]) it was 40 µM.

Consider `NCCc1ccc(O)c(O)c1` [dopamine], for which the Kd on ANR-L3 (read-out: approximated dissociation constant (Kd = 1/slope), Stern-Volmer plot, ANR-L3) amounted to 15 µM; at ANR-Y2 (read-out: approximated dissociation constant (Kd = 1/slope), Stern-Volmer plot, ANR-Y2) it was 10 µM; at ANR-Y2 (setting [7]), 9.5 µM; at ANR-Y1 (setting [2]), 3.4 µM; on ANR-Y1 (read-out: approximated dissociation constant (Kd = 1/slope), Stern-Volmer plot, ANR-Y1), 4 µM; at ANR-L4 (read-out: approximated dissociation constant (Kd = 1/slope), Stern-Volmer plot, ANR-L4) it was 7 µM. Also, the Kd was determined as 16 µM at ANR-L1 (setting [3]) and 48 µM at ANR-L1 (setting [5]). For the same molecule, the “factor weaker binding in the presence” value with ANR-L1 was ~ 3.

`CC(=O)OCC[N+](C)(C)C` [acetylcholin]: the Kd at ANR-Y1 (setting [2]) and on ANR-L1 (setting [3]) was above 1000 µM in each case.

As to `NC(=O)[C@@H](N)Cc1c[nH]c2ccccc12` [TrpNH2], the Kd is 2.7 µM on ANR-Y2 (setting [7]); 0.11 µM at ANR-Y1 (setting [2]); around 0.11 µM on ANR-Y1 (setting [8]); 2.2 µM at CB8-D1 (listed as TrpNF2); around 2.2 µM on CB8-D1; 32 µM on ANR-L1 (setting [3]).

With `COc1ccc2[nH]cc(CCNC(C)=O)c2c1` [melatonin], the Kd on ANR-Y1 (setting [2]) and at ANR-L1 (setting [3]) was above 1000 µM throughout.

Take `N[C@@H](Cc1c[nH]c2ccc(O)cc12)C(=O)O` [5-HTP]: the Kd at ANR-Y1 (setting [2]) and on ANR-L1 (setting [3]) was above 1000 µM in each case.

Turning to `N[C@@H](CCC(=O)O)C(=O)O` [glutamate], the Kd at ANR-Y1 (setting [2]) and at ANR-L1 (setting [3]) was above 1000 µM throughout.

For `NCCCCCN` [cadaverine], the Kd on ANR-Y1 (setting [2]) and on ANR-L1 (setting [3]) was above 1000 µM throughout.

`NCCc1c[nH]cn1` [histamine] returned a Kd at ANR-L3 (setting [4]) of 360 µM.

Take `CN1CCCC1c1cccnc1` (stereo not drawn) [nicotine]: in the experiment with ANRs, the “effect on emission intensity” value was “no appreciable effect”.

`N[C@@H](Cc1c[nH]cn1)C(=O)O` [histidine]: the Kd on ANR-Y1 (setting [2]) and at ANR-L1 (setting [3]) was above 1000 µM each time.

For `NCCc1c[nH]c2ccc(O)cc12` [serotonin (5-HT), serotonin], the Kd on ANR-Y1 (setting [2]) is 0.07 µM; on ANR-Y1 (setting [8]), 0.07 µM and ~0.07 µM; in [1], around 15 µM; at ANR-L2 (read-out: approximated dissociation constant (Kd = 1/slope), Stern-Volmer plot, ANR-L2), 2 µM; on ANR-L1 (setting [3]), 3.3 µM; on ANR-L1 (setting [5]), 14 µM. The Kd at ANR-L1 (ANR-L1 250 µg/mL, ethanolic media (ethanol with 0.2 mM acetic acid), read-out: single site dissociation constant Kd) is around 25 µM; at ANR-L1 (ANR-L1 250 µg/mL, water and aqueous buffer, read-out: single site dissociation constant Kd), around 3 µM; at ANR-L1 (read-out: approximated dissociation constant (Kd = 1/slope), Stern-Volmer plot, ANR-L1) it was 4 µM. Also, the “factor weaker binding in the presence” value in the experiment on ANR-L1 is given as ~ 4.

As for `N[C@@H](Cc1c[nH]c2ccccc12)C(=O)O` [tryptophan (Trp), tryptophan], the “binding to ANR1” value with ANR1 is listed as “binding”; in the experiment with ANR1 (listed as trytophane), “bind”. The figures for the Kd on ANR-Y1 (setting [2]), at CB8-D1 and at ANR-L1 (setting [3]) were above 1000 µM, around 6.3 µM and above 1000 µM, respectively.

On to `N[C@@H](Cc1ccc(O)cc1)C(=O)O` [tyrosine], for which the Kd at ANR-Y1 (setting [2]) and on ANR-L1 (setting [3]) was above 1000 µM in each case.

On to `NCCc1ccc(O)cc1` [tyramine], for which, in the experiment on ANR-L3 (titration curve shows saturation behaviour), the “quenching of the emission of ANR-L3” value is 30%. Moreover, the Kd on ANR-Y1 (setting [2]) stood at 5.7 µM; at ANR-L1 (setting [3]) it was 27 µM.

In the case of `CC(=O)CCc1ccc(O)cc1` [raspberry ketone], the Kd on ANR-Y1 (setting [2]) and at ANR-L1 (setting [3]) was above 1000 µM each time.

Turning to `c1ccc2[nH]ccc2c1` [indole], the Kd on ANR-Y1 (setting [2]) and on ANR-L1 (setting [3]) was above 1000 µM each time.

With `CNC[C@H](O)c1cccc(O)c1` [phenylephrine], the Kd on ANR-Y1 (setting [2]) was 55 µM; at ANR-L1 (setting [3]), above 600 µM.

Take `NC[C@H](O)c1ccc(O)c(O)c1` [norepinephrine]: the Kd on ANR-Y1 (setting [2]) turned out to be 11 µM; at ANR-L2 (ANR-L2, zeolite-L based), 13 µM; at ANR-L2 (setting [6]) it was 26 µM; at ANR-L1 (setting [3]) it was 31 µM.

Regarding `N[C@@H](Cc1ccc(O)c(O)c1)C(=O)O` [L-DOPA], the Kd at ANR-Y1 (setting [2]) and at ANR-L1 (setting [3]) was above 1000 µM in each case.

Turning to `Nc1ncnc2c1ncn2[C@@H]1O[C@H](CO)[C@@H](O)[C@H]1O` [adenosine], the Kd at ANR-Y1 (setting [2]) and on ANR-L1 (setting [3]) was above 1000 µM each time.

The record behind these values is EP3225590A1 (Université de Strasbourg, priority 2016, dated 2017).
